{
  "source": "patent US7368429B2",
  "about": "“Peptide specificity of anti-myelin basic protein and the administration of myelin basic protein peptides to multiple sclerosis patients” (The Governors of the University of Alberta, priority 1991, dated 2008)",
  "key": {"[1]": {"test_system": "anti-MBP purified from CSF of MS patients", "experiment": "In vitro neutralization of purified anti-MBP (liquid phase assay, then solid phase radioimmunoassay)", "format": "binding, human", "details": "for neutralization of purified anti-MBP: pooled anti-MBP from 10 MS patients, FIG. 2; for REACTIVITY WITH ANTI-MBP: purified anti-MBP, h-MBP 0-1000 ng, peptides 0-10,000 ng, 1.5 hours incubation; for neutralization of anti-MBP purified from individual patients: anti-MBP from 7 individual MS patients, FIG. 3; for times less effective on a molar basis than intact MBP at causing inhibition: peptides giving complete inhibition", "from_the_text": "Purified MBP was coupled to CNBr-activated Sepharose 4B (Pharmacia™) according to the manufacturer's instructions. Purified CSF IgG containing increased anti-MBP levels from 35 patients with acute MS relapses was used to isolate anti-MBP by MBP-Sepharose affinity chromatography (Warren, K. G. and Catz, I., J Neurol Sci 103:90-96, 1991). Purified anti-MBP samples were compared with the initial IgG source by poly-acrylamide gel electrophoresis. When purified anti-MBP samples were absorbed to zero with MBP, the post-absorption supernatants contained no residual IgG indicating the purity of anti-MBP.\nConstant amounts of anti-MBP (15 radioactivity binding units corresponding to 100 for scale expansion purposes=% 0) were incubated with increasing amounts of h-MBP (0-1000 ng) or individual peptides of MBP (0-10,000 ng) in a liquid phase assay and after 1.5 hours incubation, free anti-MBP levels were determined in all mixtures. Anti-MBP isolated from 7 individual MS patients or pooled anti-MBP from 10 different MS patients were used in neutralization experiments. […] Another mouse monoclonal antibody to epitope 45-50 was used as negative antibody control.\nAnti-MBP levels were determined by a solid phase radioimmunoassay with human MBP (Warren, K. G. and Catz, I., Ann Neurol 209:20-25, 1986; Warren, K. G. and Catz, I., Ann Neurol 21:183-187, 1987; and Warren, K. G. and Catz, I., J Neurol Sci 91:143-151, 1989). Free anti-MBP levels were measured in all fractions from affinity chromatography and in all neutralization mixtures. All individual samples were run in quadruplicate using the same iodinated material in order to minimize between-assay variability."}, "[2]": {"molecular_target": "purified B (bound) anti-MBP from MS brain tissue", "experiment": "liquid-phase competitive inhibition + solid-phase RIA on human MBP (FIG. 10)"}, "[3]": {"molecular_target": "purified F (free) anti-MBP from MS brain tissue", "experiment": "liquid-phase competitive inhibition + solid-phase RIA on human MBP (FIG. 10)"}},
  "note": "Where no end group is shown, it is not given here.",
  "data": [
    {"molecule": "HHPARTAHYGSLPQK [MBP61-75]", "values": [
      {"measurement": "neutralization of purified anti-MBP", "setting": "[1]", "result": "partially neutralized"},
      {"measurement": "REACTIVITY WITH ANTI-MBP", "setting": "[1]", "result": "+"}
    ]},
    {"molecule": "141-155: synthetic peptide of human MBP sequence 141-155 (FKGVDAQGTLSKIFK)", "values": [
      {"measurement": "REACTIVITY WITH ANTI-MBP", "setting": "[1]", "result": "−"}
    ]},
    {"molecule": "KNIVTPRTPPPSQGKG [MBP91-106]", "values": [
      {"measurement": "neutralization of anti-MBP purified from individual patients", "setting": "[1]", "result": "completely neutralized"},
      {"measurement": "times less effective on a molar basis than intact MBP at causing inhibition", "setting": "[1]", "result": "approximately 100 times"},
      {"measurement": "neutralization of purified anti-MBP", "setting": "[1]", "result": "completely neutralized"},
      {"measurement": "REACTIVITY WITH ANTI-MBP", "setting": "[1]", "result": "−"}
    ]},
    {"molecule": "Cy 127-140: synthetic peptide of human MBP sequence 127-140 with unnatural cysteine residue (CYGGRASDYKSAHKG)", "values": [
      {"measurement": "REACTIVITY WITH ANTI-MBP", "setting": "[1]", "result": "−"}
    ]},
    {"molecule": "Cy 11-24: synthetic peptide of human MBP sequence 11-24 with unnatural cysteine residue (CGSKYLATASTMDHA)", "values": [
      {"measurement": "REACTIVITY WITH ANTI-MBP", "setting": "[1]", "result": "−"}
    ]},
    {"molecule": "Cy 51-64 Gly: synthetic peptide of human MBP sequence 51-64 with added Cy and Gly (CAPKRGSGKDSHHPAG)", "values": [
      {"measurement": "REACTIVITY WITH ANTI-MBP", "setting": "[1]", "result": "+"}
    ]},
    {"molecule": "Cy 4-18: synthetic peptide of human MBP sequence 4-18 with unnatural cysteine residue (CKRPSQRHGSKYLATA)", "values": [
      {"measurement": "REACTIVITY WITH ANTI-MBP", "setting": "[1]", "result": "−"}
    ]},
    {"molecule": "Thr Gln Asp Glu Asn Pro Val Val His Phe Phe Lys Asn Ile Val Thr Pro Arg (CTQDENPVVHFFKNIVTPRG) [MBP80-97]", "values": [
      {"measurement": "neutralization of anti-MBP purified from individual patients", "setting": "[1]", "result": "completely neutralized"},
      {"measurement": "times less effective on a molar basis than intact MBP at causing inhibition", "setting": "[1]", "result": "approximately 100 times"},
      {"measurement": "neutralization of purified anti-MBP", "setting": "[1]", "result": "completely neutralized"},
      {"measurement": "REACTIVITY WITH ANTI-MBP", "setting": "[1]", "result": "++"}
    ]},
    {"molecule": "117-129: synthetic peptide of human MBP sequence 117-129 (GAEGQRPGFGYGG)", "values": [
      {"measurement": "REACTIVITY WITH ANTI-MBP", "setting": "[1]", "result": "−"}
    ]},
    {"molecule": "Cy 136-149: synthetic peptide of human MBP sequence 136-149 with unnatural cysteine residue (CSAHKGFKGVDAQGT)", "values": [
      {"measurement": "REACTIVITY WITH ANTI-MBP", "setting": "[1]", "result": "−"}
    ]},
    {"molecule": "26-40: synthetic peptide of human MBP sequence 26-40 (HGFLPRHRDTGILDS)", "values": [
      {"measurement": "REACTIVITY WITH ANTI-MBP", "setting": "[1]", "result": "−"}
    ]},
    {"molecule": "YGSLPQKSHGRTQDE [MBP69-83]", "values": [
      {"measurement": "neutralization of purified anti-MBP", "setting": "[1]", "result": "partially neutralized"},
      {"measurement": "REACTIVITY WITH ANTI-MBP", "setting": "[1]", "result": "++"}
    ]},
    {"molecule": "PVVHFFKNIV", "note": "[decapeptide MBP85-94]", "values": [
      {"measurement": "percent inhibition", "setting": "[2]", "result": "> 80", "unit": "%"},
      {"measurement": "percent inhibition", "setting": "[3]", "result": "> 80", "unit": "%"}
    ]},
    {"molecule": "NPVVHFFKNI", "note": "[decapeptide MBP84-93]", "values": [
      {"measurement": "percent inhibition", "setting": "[2]", "result": "> 80", "unit": "%"},
      {"measurement": "percent inhibition", "setting": "[3]", "result": "> 80", "unit": "%"}
    ]},
    {"molecule": "VHFFKNIVTP", "note": "[decapeptide MBP87-96]", "values": [
      {"measurement": "percent inhibition", "setting": "[2]", "result": "> 80", "unit": "%"},
      {"measurement": "percent inhibition", "setting": "[3]", "result": "> 80", "unit": "%"}
    ]}
  ]
}
